Test results: the supplement of paper PMC11821682

Tests used:
Danio rerio embryo = test: BMC10 any morphological effect or mortality at 120 hpf; higher = less toxic
Method: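 ZBEscreen: dechorionated Tropical 5D zebrafish embryos were exposed from 4 hpf in 96-well plates (1% DMSO, 28 °C). All compounds were first tested at 100 µM; hits were retested at 0.005-100 µM. Morphology and mortality were scored at 120 hpf and fitted as BMC10 (3-parameter log-logistic, extra risk). The embryonic photomotor response at 24 hpf and the larval photomotor response at 120 hpf are given as lowest effect levels (K-S test, p<0.01). NA = not significant up to 100 µM; NT = not tested.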

HL-60 = test: Cell Health Index (toxicity pseudo-probability over dose series) (index 0-1); higher = more cytotoxic / cell stress;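 further: HL-60 cells exposed 4 h at 37 °C to ten threefold dilutions spanning 5 nM to 100 µM, multiparametric flow cytometry features scored by machine-learning classification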

Structure (SMILES)	BMC10 any morphological effect or mortality (Danio rerio embryo) [µM]	Cell Health Index (HL-60)
Nc1nccc2c1ncn2[C@@H]1O[C@H](CO)[C@@H](O)[C@H]1O [3-Deazaadenosine]	> 100	0.318
O=c1[nH]c(=O)n([C@H]2C[C@H](O)[C@@H](CO)O2)cc1/C=C/Br [Brivudine]	> 100	0.157
O=C(CCc1ccc(O)cc1)c1c(O)cc(O[C@@H]2O[C@H](CO)[C@@H](O)[C@H](O)[C@H]2O)cc1O [Trilobatin]	> 100	0.183
CC(=O)O[C@H]1CC(=O)OC(C)(C)[C@@H]2CC(=O)[C@]3(C)[C@H](CC[C@@]4(C)[C@H](c5ccoc5)OC(=O)[C@H]5O[C@]543)[C@@]12C [Nomilin]	> 100	0.278
COc1cc2cc(Oc3ccc4ccc(=O)oc4c3)c(=O)oc2cc1O [Daphnoretin]	> 100	0.178
Oc1cc(O)cc(/C=C/c2ccc(O)cc2O)c1 [Oxyresveratrol]	> 100	0.673
COc1ccc(C2CC(=O)c3c(O)cc(O)cc3O2)cc1O (centres undefined) [Hesperetin]	> 100	0.258
O=CC1OC(=O)c2cc(O)c(O)c(O)c2-c2c(cc(O)c(O)c2O)C(=O)OC1C1OC(=O)c2cc(O)c(O)c(O)c2-c2c(O)c(O)c3oc(=O)c4c(c(O)c(O)c5oc(=O)c2c3c54)-c2c(cc(O)c(O)c2O)C(=O)OCC1O (centres undefined) [Punicalagin]	> 100	0.837
Cl.NCCc1ccc(S(=O)(=O)F)cc1 [AEBSF]	> 100	0.32
Cc1cn([C@H]2C[C@H](N=[N+]=[N-])[C@@H](CO)O2)c(=O)[nH]c1=O [Zidovudine]	> 100	0.17
CCCCc1nc(Cl)c(CO)n1Cc1ccc(-c2ccccc2-c2nnn[n-]2)cc1.[K+] [Losartan]	> 100	0.209
O=c1[nH]cc(F)c(=O)[nH]1 [5-Fluorouracil]	> 100	0.159
Cl.NC12C[C@H]3C[C@@H](C1)C[C@@H](C2)C3 [Amantadine]	> 100	0.195
O=C(O)Cn1nnc(-c2cc(N3CCC(Oc4cc(F)ccc4Br)CC3)no2)n1 [MK-8245]	> 100	0.226
CCCCc1nc(Cl)c(C=O)n1Cc1ccc(-c2ccccc2-c2nnn[nH]2)cc1 [Losartan carboxaldehyde]	> 100	0.293
Cc1nnc(C(=O)NC(C)(C)c2nc(C(=O)NCc3ccc(F)cc3)c([O-])c(=O)n2C)o1.[K+] [Raltegravir]	> 100	0.218
CC1(C)[C@@H]2CC[C@@]1(C)[C@H](O)C2 [Isoborneol]	> 100	0.173
Cc1c(O)c(=O)ccn1C [Deferiprone]	> 100	0.256
CC(C)C1=C2[C@H]3CC[C@@H]4[C@@]5(C)CC[C@H](OC(=O)CC(C)(C)C(=O)O)C(C)(C)[C@@H]5CC[C@@]4(C)[C@]3(C)CC[C@@]2([C@@H](O)CN(CCN(C)C)Cc2ccc(Cl)cc2)CC1=O	> 100	0.422
C#Cc1cn([C@H]2C[C@H](O)[C@@H](CO)O2)c(=O)nc1N [5'-Ethynyl-2'-deoxycytidine]	> 100	0.13
CC(C)(C)NC(=O)[C@@H]1CN(Cc2cccnc2)CCN1C[C@@H](O)C[C@@H](Cc1ccccc1)C(=O)N[C@H]1c2ccccc2C[C@H]1O.O=S(=O)(O)O [Indinavir]	> 100	0.233
Nc1n[nH]c2nnc(-c3c(-c4ccccc4)nn4ccccc34)cc12	> 100	0.299
